From US12485179B2, “Cholecystokinin B receptor targeting for imaging and therapy” (Purdue Research Foundation, priority 2012, dated 2025)

How the values were obtained:
[1] = target: T1, CCK2R (Homo sapiens, UniProt P32239); assay: Binding of 99mTc conjugates to HEK-293 CCK2R cells (cell bound radioactivity); parameters: expressed in transfected cells; host or cells: HEK-293, G418-selected, from Dr. Mark Hellmich (University of Texas at Galveston)
T1 sequence (P32239 1-447): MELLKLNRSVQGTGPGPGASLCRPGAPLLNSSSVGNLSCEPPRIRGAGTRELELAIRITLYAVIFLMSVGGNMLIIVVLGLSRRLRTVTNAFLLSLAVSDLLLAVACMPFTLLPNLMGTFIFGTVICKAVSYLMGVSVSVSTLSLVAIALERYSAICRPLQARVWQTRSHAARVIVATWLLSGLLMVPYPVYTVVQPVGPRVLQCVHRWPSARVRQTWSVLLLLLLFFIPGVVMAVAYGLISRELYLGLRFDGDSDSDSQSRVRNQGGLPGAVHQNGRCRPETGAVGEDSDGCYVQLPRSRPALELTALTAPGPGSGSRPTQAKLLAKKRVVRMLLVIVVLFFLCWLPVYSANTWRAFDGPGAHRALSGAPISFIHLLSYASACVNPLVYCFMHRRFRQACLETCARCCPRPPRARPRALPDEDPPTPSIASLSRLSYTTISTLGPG
Experimental: CRL-1, CRL-2, CRL-3 and CRL-4 were chelated to ^99mTc and tested for binding using two transfected cell lines of HEK-CCK2R (HEK-293 CCK2R) and HEK-CCK2R splice cell line (HEK CCK2i4svR), obtained from Dr. Mark Hellmich (University of Texas at Galveston). Cells were cultured in Dulbecco's modified Eagles (Gibco) supplemented with 10% Fetal Bovine Serum and G418 disulfate (SIGMA; 400 μg/ml), 1% penicillin/streptomycin at 37° C. in a humidified 95% air, 5% CO2 atmosphere.
Competition studies were performed using 100 fold excess of free Z-360 containing corresponding peptide linker and no chelating moiety. HEK 293 CCK2R and HEK CCK2i4svR were seeded onto 24 well plates and allowed to become confluent over 48-72 hours. Spent medium in each well was replaced with 0.5 ml fresh media containing 0.5% BSA and increasing concentrations of the test article. After incubating for 1 h at 37° C. cells were rinsed with incubation solution (2×1.0 ml) to remove any unbound radioactivity. Cells were then resuspended on 0.5 ml 0.25N NaOH and cell radioactivity was counted using a γ-counter. The dissociation constant (KD) was calculated using a plot of cell bound radioactivity versus the concentration of the radiotracer using Graphpad Prism 4 and assuming a non-cooperative single site binding equilibrium.

[2] = system: HEK 293 cells expressing the CCK2R; type: cell-based; settings: for IC50: dose dependent toxicity; for cell toxicity / potency: concentration range used (FIG. 16)
Experimental: FIGS. 13A-C show the results of a study on the cytotoxicity of conjugate 23 in HEK CCK2R cells, shown at varying hours from introduction. CW-2478 denotes conjugate 23, with FIG. 13A showing values at 2 hours, FIG. 13B showing the values at 4 hours, and FIG. 13C showing the values at 9 hours.
This may partly explain the modest in vivo antitumor observed activity despite its impressive antagonistic effects.

[3] = system: HEK 293 cells expressing CCK2R tumors; assay: In vivo potency, subcutaneous HEK 293 CCK2R tumors; parameters: species or system nu/nu mice; settings: for tumor size / growth during the period of the study / antitumor activity in comparison to untreated controls: 2 μmol/kg per injection
Experimental: Following the promising results obtained in vitro with the Z-360 targeted chemotherapeutics, antitumor effects of the compounds were investigated in vivo. HEK 293 cells expressing CCK2R (5.0×10^6 in 50% HC matrigel) were injected in the shoulder of 5-6 week old female nu/nu mice. Tumors were measured in two perpendicular directions every two to three days with vernier calipers, and their volumes calculated as 0.5×L×W^2 where L is the longest axis (in millimeters) and W is the axis perpendicular to L (in millimeters). Dosing solutions were prepared in saline and administered through either the lateral vein of the mice for Tubulysin B conjugates or intraperitoneally for desacetylvinblastine hydrazide conjugates. Dosing was initiated when the subcutaneous tumors reached ˜100 mm^3 in volume. Each mouse received 2 μmol/kg of the test conjugate in 100 microliters of saline per injection, three times a week for three weeks. Mouse weights were also recorded at each dosing as a measure of gross toxicity. Mice in the control groups received no treatment.

[4] = system: subcutaneous PANC-1 tumor; settings: oral Z-360 along with gemcitabine, cited from earlier work
[5] = target: T1, CCK2R; settings: cited from earlier work
[6] = three times a week for three weeks

Molecule	IC50 [2]	cell toxicity / potency [2]	tumor size / growth during the period of the study [3, 6]	antitumor activity in comparison to untreated controls [3, 6]	further results
CC(C)(C)C(=O)CN1C(=O)[C@H](NC(=O)Nc2cccc(C(=O)NC[C@H](N)C(=O)N[C@@H](CC(=O)O)C(=O)N[C@@H](CS)C(=O)O)c2)CN(C2CCCCC2)c2ccccc21 [CRL-4 ^99mTc, metal not drawn]					Kd ([1]; 1 h at 37° C., 99mTc chelated, read-out: Kd (nM) HEK-293-CCK2R Cells): 270 nM
tubulysin b [reference compound]	1.3 nM				
CC(C)(C)C(=O)CN1C(=O)[C@H](NC(=O)Nc2cccc(C(=O)N[C@@H](CCC(=O)O)C(=O)N[C@@H](CCC(=O)NC[C@H](O)[C@@H](O)[C@H](O)[C@H](O)CO)C(=O)N[C@@H](CCC(=O)O)C(=O)N[C@@H](CCC(=O)NC[C@H](O)[C@@H](O)[C@H](O)[C@H](O)CO)C(=O)NC[C@H](N)C(=O)N[C@@H](CC(=O)O)C(=O)N[C@@H](CS)C(=O)O)c2)CN(C2CCCCC2)c2ccccc21 [CRL-2 ^99mTc, metal not drawn]					specificity of binding (competition with free Z-360) ([1]; compared with CRL-1 99mTc): significantly higher specificity
CC[C@]1(O)CC2CN(CCc3c([nH]c4ccccc34)[C@@](C(=O)OC)(c3cc4c(cc3OC)N(C)[C@H]3[C@@](O)(C(=O)NNC(=O)OCCSSC[C@H](NC(=O)[C@@H](CCC(=O)NC[C@H](O)[C@@H](O)[C@H](O)[C@H](O)CO)NC(=O)[C@@H](CCC(=O)O)NC(=O)[C@@H](CCC(=O)NC[C@H](O)[C@@H](O)[C@H](O)[C@H](O)CO)NC(=O)[C@@H](CCC(=O)O)NC(=O)CCCCCCCN)C(=O)O)[C@H](O)[C@]5(CC)C=CCN6CC[C@]43[C@@H]65)C2)C1 (some centres unmarked) [Unt-DAVBH]		little to no potency	grew at almost the same rate as untreated controls		
vinblastine [reference compound]	8 nM				
CC[C@]1(O)C[C@@H]2CN(CCc3c([nH]c4ccccc34)[C@@](C(=O)OC)(c3cc4c(cc3OC)N(C)[C@H]3[C@@](O)(C(=O)NNC(=O)OCCSSC[C@H](NC(=O)[C@H](CCC(=O)NC[C@H](O)[C@@H](O)[C@H](O)[C@H](O)CO)NC(=O)[C@H](CCC(=O)O)NC(=O)[C@H](CCC(=O)NC[C@H](O)[C@@H](O)[C@H](O)[C@H](O)CO)NC(=O)[C@H](CCC(=O)O)NC(=O)CCCCCCCNC(=O)c5cccc(NC(=O)N[C@@H]6CN(C7CCCCC7)c7ccccc7N(CC(=O)C(C)(C)C)C6=O)c5)C(=O)O)[C@H](O)[C@]5(CC)C=CCN6CC[C@]43[C@@H]65)C2)C1 [conjugate 23]			remain the same size	remarkable antitumor activity	H & E staining of remaining tumor masses ([3]; conjugate 23 and conjugate 23+competition groups): contain very few malignant cells
CCCC(=O)OCN(C(=O)[C@@H](NC(=O)C1CCCCN1C)C(C)CC)[C@H](C[C@@H](OC(C)=O)c1nc(C(=O)N[C@@H](Cc2ccc(O)cc2)C[C@H](C)C(=O)NNC(=O)OCCSSC[C@H](NC(=O)[C@@H](CCC(=O)NC[C@H](O)[C@@H](O)[C@H](O)[C@H](O)CO)NC(=O)[C@@H](CCC(=O)O)NC(=O)[C@@H](CCC(=O)NC[C@H](O)[C@@H](O)[C@H](O)[C@H](O)CO)NC(=O)[C@@H](CCC(=O)O)NC(=O)CCCCCCCNC(=O)c2cccc(NC(=O)N[C@@H]3CN(C4CCCCC4)c4ccccc4N(CC(=O)C(C)(C)C)C3=O)c2)C(=O)O)cs1)C(C)C (some centres unmarked) [conjugate 22]	12 nM		reduction of tumor sizes	remarkable antitumor activity	disappearance of tumors ([3]; 2 μmol/kg, three times a week for three weeks, lateral vein): ⅗
CC(C)(C)C(=O)CN1C(=O)[C@H](NC(=O)Nc2cccc(C(=O)O)c2)CN(C2CCCCC2)c2ccccc21 [Z-360, (R)-(−)-3-[3-(1-tert-butylcarbonylmethyl-2-oxo-5-cyclohexyl-1,3,4,5-tetrahydro-2H-1,5-benzodiazepin-3-yl)ureido]benzoic acid monohydrate]		no concentration dependent cell toxicity			inhibition of subcutaneous PANC-1 tumor growth ([4]; compared with either agent alone): 27.1%; survival ([4]; compared with the vehicle): significantly increased survival; selectivity ratio over CCK1R ([5]; CCK2R over CCK1R): 672; Ki [5]: 0.47 nM
CCCC(=O)OCN(C(=O)[C@@H](NC(=O)C1CCCCN1C)C(C)CC)[C@H](C[C@@H](OC(C)=O)c1nc(C(=O)N[C@@H](Cc2ccc(O)cc2)C[C@H](C)C(=O)NNC(=O)OCCSSC[C@H](NC(=O)[C@@H](CCC(=O)NC[C@H](O)[C@@H](O)[C@H](O)[C@H](O)CO)NC(=O)[C@@H](CCC(=O)O)NC(=O)[C@@H](CCC(=O)NC[C@H](O)[C@@H](O)[C@H](O)[C@H](O)CO)NC(=O)[C@@H](CCC(=O)O)NC(=O)CCCCCCCN)C(=O)O)cs1)C(C)C (some centres unmarked) [Unt-TubH]		little to no potency		modest tumor inhibition	
